From US9732088B2, “C2-carbocyclic iminothiazine dioxides as BACE inhibitors, compositions, and their use” (Merck Sharp & Dohme Corp., priority 2014, dated 2017)

What was measured:
[1] = target: purified human autoBACE-2 (Homo sapiens (Human), UniProt Q9Y5Z0); assay: BACE-2 Assay (BACE-HTRF assay); format: biochemical; conditions: Assay 2; Ki calculated from IC50 by Cheng-Prusoff; read-out: BACE2 Ki
Experimental: The compounds of the invention were determined to be potent inhibitors of BACE-2 using the following assay. Inhibitor IC50s at purified human autoBACE-2 are determined in a time-resolved endpoint proteolysis assay that measures hydrolysis of the QSY7-[…]-Eu-amide FRET peptide substrate (BACE-HTRF assay). BACE-mediated hydrolysis of this peptide results in an increase in relative fluorescence (RFU) at 620 nm after excitation with 320 nm light Inhibitor compounds, prepared at 3× the desired final concentration in 1×BACE assay buffer (20 mM sodium acetate pH 5.0, 10% glycerol, 0.1% Brij-35) supplemented with 7.5% DMSO are pre-incubated with an equal volume of autoBACE-2 enzyme diluted in 1×BACE assay buffer (final enzyme concentration 1 nM) in black 384-well NUNC plates for 30 minutes at 30° C. […] DMSO is present at […] final concentration in the assay. Following laser excitation of sample wells at 320 nm, the fluorescence signal at 620 nm is collected for 400 ms following a 50 μs delay on a RUBYstar HTRF plate reader (BMG Labtechnologies). Raw RFU data is normalized to maximum (1.0 nM BACE/DMSO) and minimum (no enzyme/DMSO) RFU values. IC50 values are determined by nonlinear regression analysis (sigmoidal dose response, variable slope) of percent inhibition data with minimum and maximum values set to 0 and 100 percent respectively. Similar IC50s are obtained when using raw RFU data. The Ki values are calculated from the IC50 using the Cheng-Prusoff equation.

[2] = target: soluble human BACE-1 catalytic domain (Homo sapiens (Human), UniProt P56817); assay: BACE-1 Ki Assay (BACE-1 HTRF FRET Assay); format: biochemical; conditions: Assay 1; Ki calculated from IC50 by Cheng-Prusoff
Sequence of soluble human BACE-1 catalytic domain (P56817 75-416): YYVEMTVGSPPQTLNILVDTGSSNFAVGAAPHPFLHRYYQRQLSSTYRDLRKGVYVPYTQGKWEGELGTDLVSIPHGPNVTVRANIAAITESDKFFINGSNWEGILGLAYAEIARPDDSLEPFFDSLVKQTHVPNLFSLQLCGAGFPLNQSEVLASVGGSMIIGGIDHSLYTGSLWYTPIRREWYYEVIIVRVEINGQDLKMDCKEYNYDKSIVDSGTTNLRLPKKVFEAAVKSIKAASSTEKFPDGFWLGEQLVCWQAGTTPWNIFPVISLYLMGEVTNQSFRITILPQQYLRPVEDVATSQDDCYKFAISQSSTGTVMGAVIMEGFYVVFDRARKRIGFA
Experimental: Assay 1: BACE-1 Ki Assay (BACE-1 HTRF FRET Assay)
The compounds of the invention were determined to be potent inhibitors of BACE-1 using the following assay.
The following reagents were used in this assay. Na^+-Acetate pH 5.0; 1% Brij-35; Glycerol; Dimethyl Sulfoxide (DMSO); Recombinant human soluble BACE-1 catalytic domain (>95% pure); APP Swedish mutant peptide substrate (QSY7-APP^swe-Eu): QSY7-[…]-Europium-amide.
A homogeneous time-resolved FRET assay can be used to determine IC50 values for inhibitors of the soluble human BACE-1 catalytic domain. This assay monitors the increase of 620 nm fluorescence that resulted from BACE-1 cleavage of an APPswedish APP^swe mutant peptide FRET substrate (QSY7-[…]-Europium-amide). This substrate contains an N-terminal QSY7 moiety that serves as a quencher of the C-terminal Europium fluorophore (620 nm Em). In the absence of enzyme activity, 620 nm fluorescence is low in the assay and increased linearly over 3 hours in the presence of uninhibited BACE-1 enzyme. Inhibition of BACE-1 cleavage of the QSY7-APP^swe-Eu substrate by inhibitors is manifested as a suppression of 620 nm fluorescence.
Varying concentrations of inhibitors at 3× the final desired concentration in a volume of […] are preincubated with purified human BACE-1 catalytic domain (3 nM in 10 μl) for 30 minutes at 30° C. in reaction buffer containing 20 mM Na-Acetate pH 5.0, 10% glycerol, 0.1% Brij-35 and 7.5% DSMO. Reactions are initiated by addition of 10 μl of 600 nM QSY7-APP^swe-Eu substrate (200 nM final) to give a final reaction volume of 30 μl in a 384 well Nunc HTRF plate. The reactions are incubated at 30° C. for 1.5 hours. The 620 nm fluorescence is then read on a Rubystar HTRF plate reader (BMG Labtechnologies) using a […] delay followed by a 400 millisecond acquisition time window. Inhibitor IC50 values are derived from non-linear regression analysis of concentration response curves. Ki values are then calculated from IC50 values using the Cheng-Prusoff equation using a previously determined […] of 8 μM for the QSY7-APP^swe-Eu substrate at BACE-1. The example compounds of the invention were measured in this assay.

[3] = target: purified human Cathepsin-D (Homo sapiens (Human), UniProt P07339); assay: Cathepsin-D Assay (time-resolved FRET); format: biochemical; conditions: Assay 4; Ki calculated from IC50 by Cheng-Prusoff;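 note: Europium-labelled peptide substrate with QSY7 quencher, cleavage read as 620 nm fluorescence after 30 min preincubation then 30 min reaction at 30 °C, pH 5.0, inhibition lowers signal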
Sequence of purified human Cathepsin-D (P07339 65-412): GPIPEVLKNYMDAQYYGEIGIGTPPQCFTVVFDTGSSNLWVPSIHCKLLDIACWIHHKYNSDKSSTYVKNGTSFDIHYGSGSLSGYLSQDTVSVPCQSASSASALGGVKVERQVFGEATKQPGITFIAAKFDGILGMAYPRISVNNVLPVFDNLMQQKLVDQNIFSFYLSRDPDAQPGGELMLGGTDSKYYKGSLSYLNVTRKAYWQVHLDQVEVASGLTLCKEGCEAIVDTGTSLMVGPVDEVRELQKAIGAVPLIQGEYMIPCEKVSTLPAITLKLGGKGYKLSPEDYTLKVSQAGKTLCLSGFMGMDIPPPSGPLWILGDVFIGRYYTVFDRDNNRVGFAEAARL

[4] = target: BACE-1 (Homo sapiens (Human), UniProt P56817); assay: BACE-1 Cellular Assay (Aβ in HEK293-APPswe/lon cells); format: cell-based; conditions: 4 hours
Sequence of BACE-1 (P56817 46-501): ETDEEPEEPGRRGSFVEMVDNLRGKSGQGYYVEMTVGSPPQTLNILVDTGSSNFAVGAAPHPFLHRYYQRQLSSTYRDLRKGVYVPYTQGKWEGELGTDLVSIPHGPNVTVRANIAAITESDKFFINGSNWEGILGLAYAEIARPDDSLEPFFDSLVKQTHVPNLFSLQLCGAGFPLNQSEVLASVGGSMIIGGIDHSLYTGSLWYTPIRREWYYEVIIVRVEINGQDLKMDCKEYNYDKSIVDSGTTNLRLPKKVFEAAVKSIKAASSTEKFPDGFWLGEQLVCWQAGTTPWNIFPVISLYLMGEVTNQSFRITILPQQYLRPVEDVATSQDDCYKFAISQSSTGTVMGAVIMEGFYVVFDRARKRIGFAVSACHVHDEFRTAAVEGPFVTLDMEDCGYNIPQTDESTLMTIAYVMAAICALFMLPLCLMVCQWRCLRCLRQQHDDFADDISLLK
Experimental: Assay 3: BACE-1 Cellular Assay
Certain compounds of the invention, identified in the tables herein, were determined to be potent inhibitors of BACE-1 in the following cellular assay. HEK293 cells are obtained from the American Type Culture Collection (ATCC) and stably transfected with the human amyloid precursor protein cDNA containing the FAD Swedish (enhances β-secretase processing) and London (enhances Aβ42 cleavage) mutations. A HEK293 stable clone with Aβ expression (HEK293-APP^swe/lon) is identified and maintained at 37° C., 5% CO2 in the ATCC-recommended growth media supplemented with hygromycin. […] Aβ40 or Aβ42 are measured in 15 μl of media using a mesoscale based ELISA assay. Full length Aβ40 and Aβ42 peptides are captured with the N-terminal specific biotinylated-WO2 monoclonal antibody and detected using either the ruthenylated Aβ40 C-terminal specific monoclonal antibody, G2-10 or the ruthenylated Aβ42 C-terminal specific monoclonal antibody G2-11 respectively. Raw electrochemiluminescnce values are measured using a Mesoscale Sector Imager plate reader and are plotted as a function of compound concentration. IC50 values are interpolated from the data using nonlinear regression analysis (Sigmoidal dose response fit with variable slope) of the data using GraphPad Prism software.

Sequence of purified human autoBACE-2 (Q9Y5Z0 63-466): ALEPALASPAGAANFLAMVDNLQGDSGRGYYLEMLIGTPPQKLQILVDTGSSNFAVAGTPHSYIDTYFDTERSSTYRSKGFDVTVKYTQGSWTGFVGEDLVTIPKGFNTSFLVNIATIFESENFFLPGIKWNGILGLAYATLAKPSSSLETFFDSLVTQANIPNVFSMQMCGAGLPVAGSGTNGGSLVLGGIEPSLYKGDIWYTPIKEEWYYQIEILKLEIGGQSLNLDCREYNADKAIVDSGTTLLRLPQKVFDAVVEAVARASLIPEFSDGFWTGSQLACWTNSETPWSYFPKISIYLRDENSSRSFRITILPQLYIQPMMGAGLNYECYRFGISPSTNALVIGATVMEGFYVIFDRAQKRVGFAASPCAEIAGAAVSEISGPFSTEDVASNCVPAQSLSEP

Row | Structure (SMILES) | Ki [1] | Ki [2] | Ki [3] | IC50 [4]
1 | CC#CCOc1cnc2c(Nc3cc([C@]4(C)CS(=O)(=O)[C@@](C)(C5CC5)C(N)=N4)c(F)cn3)nccc2c1 [Example 10, 3-(but-2-yn-1-yloxy)-N-{4-[(3R,6S)-6-cyclopropyl-5-imino-3,6-dimethyl-1,1-dioxidothiomorpholin-3-yl]-5-fluoropyridin-2-yl}-1,7-naphthyridin-8-amine] | 0.64 nM | 0.79 nM | > 9400 nM | 0.25 nM
2 | CC#CCOc1cnc2c(Nc3cnc(F)c([C@]4(C)CS(=O)(=O)[C@@](CF)(C5CC5)C(N)=N4)c3)nccc2c1 [Example 11, 3-(but-2-yn-1-yloxy)-N-{5-[(3R,6S)-6-cyclopropyl-6-(fluoromethyl)-5-imino-3-methyl-1,1-dioxidothiomorpholin-3-yl]-6-fluoropyridin-3-yl}-1,7-naphthyridin-8-amine] | 7.5 nM | 0.91 nM | 857 nM | 4.1 nM
3 | COc1cnc2c(Nc3cnc(F)c([C@]4(C)CS(=O)(=O)[C@@](CF)(C5CC5)C(N)=N4)c3)nccc2c1 [Example 12, N-{5-[(3R,6S)-6-cyclopropyl-6-(fluoromethyl)-5-imino-3-methyl-1,1-dioxidothiomorpholin-3-yl]-6-fluoropyridin-3-yl}-3-methoxy-1,7-naphthyridin-8-amine] | 3.3 nM | 6.1 nM | 629 nM | 99 nM
4 | CC#CCOc1cnc2c(Nc3cnc(F)c([C@]4(C)CS(=O)(=O)[C@@](CF)(C5CC5)C(N)=N4)c3)nccc2n1 [Example 13, 2-(but-2-yn-1-yloxy)-N-{5-[(3R,6S)-6-cyclopropyl-6-(fluoromethyl)-5-imino-3-methyl-1,1-dioxidothiomorpholin-3-yl]-6-fluoropyridin-3-yl}pyrido[3,4-b]pyrazin-5-amine] | 1.1 nM | 0.65 nM | 3380 nM | 6.6 nM
5 | C[C@@]1(c2cc(Nc3ncnc4cc(Br)cnc34)ccc2F)CS(=O)(=O)[C@@](C)(C2CC2)C(N)=N1 [Example 15, 7-bromo-N-{3-[(3R,6S)-6-cyclopropyl-5-imino-3,6-dimethyl-1,1-dioxidothiomorpholin-3-yl]-4-fluorophenyl}pyrido[3,2-d]pyrimidin-4-amine] | 0.73 nM | 1.8 nM | 321 nM | 3.4 nM
6 | C[C@@]1(c2cc(Nc3nccc4cc(Br)cnc34)ccc2F)CS(=O)(=O)[C@@](C)(C2CC2)C(N)=N1 [Example 17, 3-bromo-N-{3-[(3R,6S)-6-cyclopropyl-5-imino-3,6-dimethyl-1,1-dioxidothiomorpholin-3-yl]-4-fluorophenyl}-1,7-naphthyridin-8-amine] | 0.41 nM | 1.4 nM | 146 nM | 16 nM
7 | COc1cnc2c(Nc3cc([C@]4(C)CS(=O)(=O)[C@@](C)(C5CC5)C(N)=N4)c(F)cn3)ncnc2c1 [Example 19, N-{4-[(3R,6S)-6-cyclopropyl-5-imino-3,6-dimethyl-1,1-dioxidothiomorpholin-3-yl]-5-fluoropyridin-2-yl}-7-methoxypyrido[3,2-d]pyrimidin-4-amine] | 21 nM | 67 nM | 9300 nM | 192 nM
8 | COc1cnc2c(Nc3ccc(F)c([C@]4(C)CS(=O)(=O)[C@@](C)(C5CC5)C(N)=N4)c3)ncnc2c1 [Example 20, (2S,5R)-2-cyclopropyl-5-(2-fluoro-5-((7-methoxypyrido[3,2-d]pyrimidin-4-yl)amino)phenyl)-3-imino-2,5-dimethylthiomorpholine 1,1-dioxide] | 2.4 nM | 3.7 nM | 2160 nM | 5.3 nM
9 | C[C@@]1(c2cc(Nc3nccc4cc(O)cnc34)ncc2F)CS(=O)(=O)[C@@](C)(C2CC2)C(N)=N1 [Example 25, (3R,6S)-5-amino-6-cyclopropyl-3-(5-fluoro-2-((3-hydroxy-1,7-naphthyridin-8-yl)amino)pyridin-4-yl)-3,6-dimethyl-3,6-dihydro-2H-1,4-thiazine 1,1-dioxide] | 0.59 nM | 0.89 nM | > 9400 nM | 4.9 nM
10 | C[C@@]1(c2cc(Nc3nccc4cc(Cl)cnc34)ncc2F)CS(=O)(=O)[C@@](C)(C2CC2)C(N)=N1 [Example 27, (3R,6S)-5-amino-3-(2-((3-chloro-1,7-naphthyridin-8-yl)amino)-5-fluoropyridin-4-yl)-6-cyclopropyl-3,6-dimethyl-3,6-dihydro-2H-1,4-thiazine 1,1-dioxide] | 2.9 nM | 10 nM | > 9400 nM | 180 nM
11 | COc1cnc2c(Nc3cnc(F)c([C@]4(C)CS(=O)(=O)[C@@](C)(C5CC5)C(N)=N4)c3)nccc2c1 [Example 32, (3R,6S)-5-amino-6-cyclopropyl-3-(2-fluoro-5-((3-methoxy-1,7-naphthyridin-8-yl)amino)pyridin-3-yl)-3,6-dimethyl-3,6-dihydro-2H-1,4-thiazine 1,1-dioxide] | 2.6 nM | 6.9 nM | 650 nM | 24 nM
12 | C[C@@]1(c2cc(Nc3ccnc4cc(Cl)cnc34)ncc2F)CS(=O)(=O)[C@@](C)(C2CC2)C(N)=N1 [Example 33, (3R,6S)-5-amino-3-(2-((7-chloro-1,5-naphthyridin-4-yl)amino)-5-fluoropyridin-4-yl)-6-cyclopropyl-3,6-dimethyl-3,6-dihydro-2H-1,4-thiazine 1,1-dioxide] | 0.82 nM | 6.2 nM | 820 nM | 27 nM
13 | C[C@@]1(c2cc(Nc3ncnc4cc(Br)cnc34)ncc2F)CS(=O)(=O)[C@@](C)(C2CC2)C(N)=N1 [Example 38, (3R,6S)-5-amino-3-(2-((7-bromopyrido[3,2-d]pyrimidin-4-yl)amino)-5-fluoropyridin-4-yl)-6-cyclopropyl-3,6-dimethyl-3,6-dihydro-2H-1,4-thiazine 1,1-dioxide] | 3.8 nM | 8.2 nM | 3200 nM | 110 nM
